Values quoted from earlier work, collected in patent publication US20100035992A1, “Methods and Compositions for Treating Inflammation and Inflammation-Related Pathologies” (priority 2008, published 2010).

Details: at 79° F.

CS(C)(=O)=O [MSM, methylsulfonylmethane]
water solubility: 34 % w/v
